# Patent US6355644B1, “Benzylpiperazinyl-indolinylethanones” (Neurogen Corporation, priority 1999, dated 2002)
# Columns and labels:
# dopamine D4 receptor = biological target: T1, dopamine D4 receptor (Homo sapiens, UniProt P21917); assay: D4 receptor binding assay (3H-YM 09151-2 displacement); conditions: CHO cells recombinantly expressing human D4; 0.1 nM 3H-YM 09151-2; 25° C.
# T1 sequence (P21917 1-419): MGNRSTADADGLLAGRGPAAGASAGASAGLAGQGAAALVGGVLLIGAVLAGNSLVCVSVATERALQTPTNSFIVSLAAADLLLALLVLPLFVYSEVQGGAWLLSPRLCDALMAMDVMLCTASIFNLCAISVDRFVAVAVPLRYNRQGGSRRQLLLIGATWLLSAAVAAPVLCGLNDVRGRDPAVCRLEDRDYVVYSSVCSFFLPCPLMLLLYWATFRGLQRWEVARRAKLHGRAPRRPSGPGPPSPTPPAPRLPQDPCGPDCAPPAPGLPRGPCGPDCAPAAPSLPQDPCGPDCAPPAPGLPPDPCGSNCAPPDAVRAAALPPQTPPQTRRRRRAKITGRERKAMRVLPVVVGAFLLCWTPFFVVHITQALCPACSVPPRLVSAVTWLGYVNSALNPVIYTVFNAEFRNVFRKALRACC
# Procedure: (§1) Determination of D2 and D4 Receptor Binding Activity
# (§2) The following assay is used for determining the binding affinity of compounds to dopamine D4 and D2 receptors.
# (§3) Pellets of Chinese hamster ovary (CHO) cells containing recombinantly expressing primate D2, human D4 or […] receptors are used for the assays. The sample is homogenized in 100 volumes (w/vol) of 0.05 M Tris HCl buffer containing 120 mM NaCl, 5 mM MgCl2 and 1 mM EDTA at 4° C. and pH 7.4. The sample is then centrifuged at 30,000×g, resuspended and rehomogenized. The sample is then recentrifuged at 30,000×g, the supernatant is removed and the final tissue sample is frozen until it is needed. The tissue is resuspended 1:20 (wt/vol) in 0.05 M Tris HCl buffer containing 120 mM NaCl.
# dopamine D2 receptor = dopamine D2 receptor (Chlorocebus aethiops, UniProt P52702); assay: D2 receptor binding assay (3H-YM 09151-2 displacement); conditions: CHO cells recombinantly expressing primate D2; 0.1 nM 3H-YM 09151-2; 25° C.
# Chain of dopamine D2 receptor (P52702 whole entry): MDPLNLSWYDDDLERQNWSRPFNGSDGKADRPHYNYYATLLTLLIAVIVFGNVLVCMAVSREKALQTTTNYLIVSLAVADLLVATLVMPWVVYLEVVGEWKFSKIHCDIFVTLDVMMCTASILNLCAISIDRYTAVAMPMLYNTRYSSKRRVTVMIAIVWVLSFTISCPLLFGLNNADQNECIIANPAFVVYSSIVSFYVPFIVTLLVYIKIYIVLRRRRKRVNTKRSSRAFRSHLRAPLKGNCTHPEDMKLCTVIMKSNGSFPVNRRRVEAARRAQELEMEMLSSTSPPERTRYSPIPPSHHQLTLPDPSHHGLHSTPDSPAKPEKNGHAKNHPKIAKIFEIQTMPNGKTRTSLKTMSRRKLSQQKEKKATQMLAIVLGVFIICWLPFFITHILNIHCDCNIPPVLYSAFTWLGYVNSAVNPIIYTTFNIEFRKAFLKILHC
# Procedure: as §1, §2, §3
SMILES,Ki (dopamine D4 receptor),Ki (dopamine D2 receptor)
"Cc1ccc(CN2CCN(CC(=O)N3c4ccccc4[C@H]4CCCC[C@H]43)CC2)cc1 (relative stereo) [Compound 1o, 1-[(4b,8a-cis-5,6,7,8,9,4b,8a-heptahydro-4aH-carbazol-9-yl)ethyl]-2-{4-[(4-methylphenyl)methyl]piperazinyl}ethan-1-one]",11 nM,200 nM
O=C(CN1CCN(Cc2ccc(Cl)cc2)CC1)N1c2ccccc2C[C@H]1CF [Compound 1m],–,1100 nM
Cc1ccc(CN2CCN(CC(=O)N3CC(C)c4ccccc43)CC2)cc1 (centres unmarked) [Compound 1b],93 nM,2640 nM
O=C(CN1CCN(Cc2ccc(Cl)cc2)CC1)N1c2ccccc2CC1CO (centres unmarked) [Compound 1j],–,3210 nM
COc1ccc(Cl)cc1CN1CCN(CC(=O)N2c3ccccc3C(C)C2C)CC1 (centres unmarked) [Compound 1e],22 nM,128 nM

# Other lines, results leading:
Ki (dopamine D4 receptor),Ki (dopamine D2 receptor),SMILES
5 nM,–,C=C[C@@H]1Cc2ccccc2N1C(=O)CN1CCN(Cc2ccc(Cl)cc2)CC1 [Compound 1l]
5 nM,–,COC(=O)C1Cc2ccccc2N1C(=O)CN1CCN(Cc2ccc(Cl)cc2)CC1 (centres unmarked) [Compound 1g]
70 nM,473 nM,Cc1ccc(CN2CCN(CC(=O)N3c4ccccc4[C@H](C)[C@@H]3C)CC2)cc1 [Compound 1d]
2 nM,185 nM,Cc1ccc(CN2CCN(CC(=O)N3c4ccccc4[C@@H](C)[C@H]3C)CC2)cc1 [Compound 1c]
